Results as given in US20020010209A1, “Use of benzopyranols to treat neurological disorders” (priority 1996, published 2002).

System: trigemino-vascular system
Assay: Trigeminal nerve model in anaesthetised cats (TGN stimulation-induced reduction in carotid vascular resistance)
Assay type: in vivo, cat
Details: for % Change in TGN-reduction in carotid vascular resistance at 4 hours following continuous iv infusion (mean ± sem) / % Changes of TGW-induced reduction in carotid vascular resistance 3 hours (mean ± sem): anaesthetised cat
Description: Trigeminal nerve model in anaesthetised cats
Cats were anaesthetised with α-chloralose (90-110 mg/kg i.v.) and artificially respired with room air. Body temperature was maintained at 37-38 C. A femoral artery was cannulated for recording of blood pressure and heart rate. Arterial blood flow was recorded by a Doppler flow probe placed around the right common carotid artery. Bipolar stainless electrodes were stereotaxically placed into each trigeminal ganglion. Guanethidine (3 mg/kg i.v.) was then administered and 45 min allowed for stabilisation. […]

[1] = continuous iv infusion 3.4 μmol/h, at 4 hours
[2] = intraduodenal administration 10 mg.kg, after 3 hours
[3] = intravenous administration at 3.4 μmol/h, at 4 hours

| Structure (SMILES) | % Change in TGN-reduction in carotid vascular resistance at 4 hours following continuous iv infusion (mean ± sem) [1] | % Changes of TGW-induced reduction in carotid vascular resistance 3 hours (mean ± sem) (intraduodenal 10 mg/kg in labrasol) | inhibition of TGN-induced reduction in carotid vascular resistance (in words) [2] | inhibition of TGN-induced reduction in carotid vascular resistance (in words) [3] | % Change in TGN-reduction in carotid vascular resistance at 4 hours following continuous iv infusion (mean ± sem) (continuous iv infusion 11 μmol/h, at 4 hours) | % Changes of TGW-induced reduction in carotid vascular resistance 3 hours (mean ± sem) (intraduodenal 10 mg/kg in methylcellulose) | effects on TGN stimulation-induced reductions in carotid vascular resistance (in words) (guanethidine treated anaesthetised cat) | inhibition of trigeminal nerve mediated responses (guanethidine treated anaesthetised cat, intraduodenal bolus 10 mg/kg, 2 hours post administration, n=4) |
| --- | --- | --- | --- | --- | --- | --- | --- | --- |
| CC(=O)c1ccc2c(c1)[C@H](NC(=O)c1ccc(F)cc1)[C@@H](O)C(C)(C)O2 (relative stereo) [Compound 1, trans-6-acetyl-4S-(4-fluorobenzoylamino)-3,4-dihydro-2,2-dimethyl-2H-1-benzopyran-3R-ol] | −29.1 ± 3.7 % | −43 ± 12.9 % | significant inhibition | significant inhibition | – | – | – | – |
| CC(=O)c1ccc2c(c1)[C@H](NC(=O)c1ccc(F)c(Cl)c1)[C@H](O)C(C)(C)O2 (relative stereo) [Compound 2, cis-6-acetyl-4S-(3-chloro-4-fluorobenzoylamino)-3,4-dihydro-2,2-dimethyl-2H-1-benzopyran-3S-ol] | −30.0 ± 6.6 % | – | significant inhibition | significant inhibition | −21.8 ± 14 % | −69% | – | – |
| CC(=O)c1ccc2c(c1)[C@H](NC(=O)c1cc(F)cc(F)c1)[C@@H](O)C(C)(C)O2 (relative stereo) [Compound 3, trans-6-acetyl-4S-(3,5-difluorobenzoylamino)-3,4-dihydro-2,2-dimethyl-2H-1-benzopyran-3R-ol] | – | – | – | – | – | – | marked effects | 77% |
